{"source": "patent US20030220309A1", "about": "“17-methylenandrostan-3alpha-ol analogs as CRH inhibitors” (Pherin Pharmaceuticals, Inc., priority 2001, published 2003)", "key": {"[1]": {"system": "norepinephrine and serotonin", "test": "Neurotransmitter concentrations in blood and metabolites in urine", "assay_type": "in vivo", "details": "relative to placebo, human volunteers", "description": "(§1) 17-Methylenandrost-4-en-3α-ol, 400 pg, or placebo were administered to the vomeronasal organs of normal adult male and female human volunteers using a delivery device which delivered the compound to the opening of the vomeronasal organ in measured quantity (two 2 second “puffs” of a 10^−8 M solution of the active ingredient in propylene glycol, or propylene glycol alone). The study evaluations included objective and subjective evaluations of sleep, a power spectral analysis of the subjects' electroencephalograms, and a pencil-and-paper self-report inventory (ABS-70) of the subjects' effective state.\n(§2) 17-Methylenandrost-4-en-3α-ol also reduces plasma concentrations of ACTH and cortisol, and also reduces cortisol concentration in urine. It also increases, relative to placebo, concentrations of the neurotransmitters norepinephrine and serotonin in blood and their metabolites in urine."}, "[2]": {"system": "normal adult male and female human volunteers", "test": "Overall outcome of the vomeronasal study (sleep, EEG, self-report)", "assay_type": "in vivo", "details": "administration to the vomeronasal organ", "description": "as §1"}, "[3]": {"system": "normal adult male and female human volunteers", "test": "Sleep evaluation after administration to the vomeronasal organ of normal human volunteers", "assay_type": "in vivo", "set-up": "key: increase (↑); decrease (↓); no change (=)", "details": "400 pg administered to the VNO before bedtime, normal subjects, males and females combined, change with respect to placebo", "description": "as §1\nThe table below provides a comparison of the results from the study with 17-methylenandrost-4-en-3α-ol with literature reports on the effects of the effects of the marketed antidepressant paroxetine (Paxil®); where changes in sleep variables are indicated as an increase (↑), decrease (↓), or no change (=) with respect to placebo.\nComparative effects of 17-methylenandrost-4-en-3α-ol, 400 pg administered to the VNO, and paroxetine, 30 mg orally, given before bedtime in normal subjects: […]"}, "[4]": {"system": "normal adult male and female human volunteers", "test": "Power spectral analysis of electroencephalograms after vomeronasal administration", "assay_type": "in vivo", "details": "400 pg to the vomeronasal organ", "description": "as §1\nBased on this study, 17-methylenandrost-4-en-3α-ol shares antidepressant and stimulant properties with paroxetine and other selective serotonin reuptake inhibitor antidepressants."}, "CRH": {"system": "CRH", "test": "ACTH and cortisol concentrations in plasma and urine (indirect measure of CRH inhibition)", "assay_type": "in vivo", "details": "400 pg to the vomeronasal organ, human volunteers", "description": "The compounds of this invention are, when administered to the VNO, CRH inhibitors. Their activity as CRH inhibitors in vivo can be measured directly by measurement of the inhibition of CRH or indirectly by the measurement of other hormones, such as ACTH, and steroids, such as cortisol, associated with CRH, as discussed in the Examples.\nas §1, §2"}, "normal subjects": {"system": "normal subjects", "set-up": "key: increase (↑); decrease (↓); no change (=)", "details": "30 mg orally before bedtime, change with respect to placebo, from Saletu et al. 1991; cited from earlier work"}}, "data": [{"smiles": "C=C1CC[C@H]2[C@@H]3CCC4=C[C@H](O)CC[C@]4(C)[C@H]3CC[C@]12C", "note": "[17-Methylenandrost-4-en-3α-ol]", "values": [{"measurement": "concentration of norepinephrine in blood", "setting": "[1]; blood", "result": "increases"}, {"measurement": "concentration of serotonin in blood", "setting": "[1]; blood", "result": "increases"}, {"measurement": "concentrations of norepinephrine and serotonin metabolites in urine", "setting": "[1]; urine", "result": "increases"}, {"measurement": "overall study result (sleep, EEG, hormones, neurotransmitters)", "setting": "[2]", "result": "antidepressant properties"}, {"measurement": "REM sleep latency", "setting": "[3]", "result": "↑"}, {"measurement": "Sleep efficiency", "setting": "[3]", "result": "↓"}, {"measurement": "Sleep latency", "setting": "[3]", "result": "↑"}, {"measurement": "Stage 1 sleep time", "setting": "[3]", "result": "↑"}, {"measurement": "Stage 2 sleep time", "setting": "[3]", "result": "↑"}, {"measurement": "Stages 3 + 4 sleep time", "setting": "[3]", "result": "="}, {"measurement": "Total REM sleep time", "setting": "[3]", "result": "↓"}, {"measurement": "Total sleep time", "setting": "[3]", "result": "↓"}, {"measurement": "EEG β-wave activity", "setting": "[4]", "result": "increased"}, {"measurement": "EEG θ-wave activity", "setting": "[4]", "result": "increased"}, {"measurement": "δ-frequency activity in stages S3 and S4 non-REM sleep", "setting": "[4]", "result": "increase"}, {"measurement": "plasma concentration of ACTH", "setting": "CRH; plasma", "result": "reduces"}, {"measurement": "plasma concentration of cortisol", "setting": "CRH; plasma", "result": "reduces"}, {"measurement": "cortisol concentration in urine", "setting": "CRH; urine", "result": "reduces"}]}, {"smiles": "Fc1ccc([C@@H]2CCNC[C@H]2COc2ccc3c(c2)OCO3)cc1", "note": "[Paroxetine, paroxetine]", "values": [{"measurement": "REM sleep latency", "setting": "normal subjects", "result": "↑"}, {"measurement": "Sleep efficiency", "setting": "normal subjects", "result": "↓"}, {"measurement": "Sleep latency", "setting": "normal subjects", "result": "↑"}, {"measurement": "Stage 1 sleep time", "setting": "normal subjects", "result": "↑"}, {"measurement": "Stage 2 sleep time", "setting": "normal subjects", "result": "="}, {"measurement": "Stages 3 + 4 sleep time", "setting": "normal subjects", "result": "="}, {"measurement": "Total REM sleep time", "setting": "normal subjects", "result": "↓"}, {"measurement": "Total sleep time", "setting": "normal subjects", "result": "↓"}]}]}
